# Reference: patent US20090264384A1, “INDOLE, BENZIMIDAZOLE, AND BENZOLACTAM BORONIC ACID COMPOUNDS, ANALOGS THEREOF AND METHODS OF USE THEREOF” (Nuada, Inc., priority 2004, published 2009)
# Columns and labels:
# D3(h) = target: T1, D3(h) (Homo sapiens, UniProt P35462); assay: D3(h) binding assay; conditions: 1.0E−05 M; read-out: % Inhibition of Control Specific Binding
# T1 construct: expressed in transfected cells; host or cells: CHO cells
# CB2(h) = target: T2, CB2(h) (Homo sapiens, UniProt P34972); assay: CB2(h) binding assay; conditions: 1.0E−05 M; read-out: % Inhibition of Control Specific Binding
# T2 construct: expressed in transfected cells; host or cells: HEK-293 cells
# Guanylyl cyclase (basal) = target: T3, Guanylyl cyclase (basal) (Bos taurus, UniProt P16068+P19687); assay: Guanylyl cyclase (basal) enzyme assay; type: biochemical, bovine; conditions: 1.0E−05 M
# T3 construct: bovine lung; from tissue; host or cells: bovine lung
# V2(h) = target: T4, V2(h) (Homo sapiens, UniProt P30518); assay: V2(h) binding assay; conditions: 1.0E−05 M; read-out: % Inhibition of Control Specific Binding
# T4 construct: expressed in transfected cells; host or cells: CHO cells
# A3(h) = target: T5, A3(h) (Homo sapiens, UniProt P0DMS8); assay: A3(h) binding assay; conditions: read-out: % Inhibition of Control Specific Binding
# T5 construct: expressed in transfected cells; host or cells: HEK-293 cells
# hERG = hERG (Homo sapiens, UniProt Q12809); assay: ADME-Tox: QT Prolongation, HERG (patch-clamp); conditions: human, HEK-293 cells stably expressing HERG
# HERG channel = HERG channel (Homo sapiens, UniProt Q12809); assay: ADME-Tox: QT Prolongation, HERG (patch-clamp)
# B2(h) = target: T6, B2(h) (Homo sapiens, UniProt P30411); assay: B2(h) binding assay; conditions: 1.0E−05 M; read-out: % Inhibition of Control Specific Binding
# T6 construct: expressed in transfected cells; host or cells: CHO cells
# I2 (central) = I2 (central) binding assay; parameters: species or system rat; conditions: 1.0E−05 M
# NK1(h) = target: T7, NK1(h) (Homo sapiens, UniProt P25103); assay: NK1(h) binding assay; conditions: read-out: % Inhibition of Control Specific Binding
# T7 construct: NK1(h); U-373MG cells; [Sar^9,Met(O2)^11]-SP; Heuillet et al. (1993); endogenous in cells; host or cells: U-373MG cells
# Protein kinase C = Protein kinase C enzyme assay; type: biochemical, rat; conditions: 1.0E−05 M
# D1(h) = target: T8, D1(h) (Homo sapiens, UniProt P21728); assay: D1(h) binding assay; conditions: read-out: % Inhibition of Control Specific Binding
# T8 construct: expressed in transfected cells; host or cells: CHO cells
# [1] = target: Ca^2+ channel (L, diltiazem site) (benzothiazepines) (Rattus norvegicus, UniProt P22002); assay: Ca^2+ channel (L, diltiazem site) binding assay; conditions: read-out: % Inhibition of Control Specific Binding
# DA transporter(h) = target: T9, DA transporter(h) (Homo sapiens, UniProt Q01959); assay: DA transporter(h) binding assay; conditions: 1.0E−05 M; read-out: % Inhibition of Control Specific Binding
# T9 construct: expressed in transfected cells; host or cells: CHO cells
# H3 = H3 binding assay; parameters: species or system rat; conditions: 1.0E−05 M
# GABA transaminase = target: T10, GABA transaminase (Rattus norvegicus, UniProt P50554); assay: GABA transaminase enzyme assay; type: biochemical; conditions: 1.0E−05 M
# T10 construct: rat brain; from tissue; host or cells: rat brain
# MAO-B(h) = target: T11, MAO-B(h) (Homo sapiens, UniProt P27338); type: biochemical; conditions: 1.0E−05 M
# T11 construct: human platelets; from tissue; host or cells: human platelets
# 5-HT (non-selective) = 5-HT (non-selective) binding assay; parameters: species or system rat; conditions: 1.0E−05 M
# α2 (non-selective) = α2 (non-selective) binding assay; parameters: species or system rat; conditions: 1.0E−05 M
# A2A(h) = target: T12, A2A(h) (Homo sapiens, UniProt P29274); assay: A2A(h) binding assay; conditions: 1.0E−05 M
# T12 construct: expressed in transfected cells; host or cells: HEK-293 cells
# Glucocorticoid(h) (GR) = target: T13, Glucocorticoid(h) (GR) (Homo sapiens, UniProt P04150); assay: Glucocorticoid(h) (GR) binding assay; conditions: 1.0E−05 M; read-out: % Inhibition of Control Specific Binding
# T13 construct: Glucocorticoid(h); IM-9 cells; dexamethasone; Clark et al. (1996); endogenous in cells; host or cells: IM-9 cells (cytosol)
# Tyrosine hydroxylase = target: T14, Tyrosine hydroxylase (Rattus norvegicus, UniProt P04177); assay: Tyrosine hydroxylase enzyme assay; type: biochemical; conditions: 1.0E−05 M
# T14 construct: rat striatum; from tissue; host or cells: rat striatum
# I1 (peripheral) = I1 (peripheral) binding assay; parameters: species or system bovine; conditions: 1.0E−05 M
# σ (non-selective) = σ (non-selective) binding assay; parameters: species or system rat; conditions: 1.0E−05 M
# LTD4(h) = target: T15, LTD4(h) (Homo sapiens, UniProt Q9Y271); assay: LTD4(h) binding assay; conditions: read-out: % Inhibition of Control Specific Binding
# T15 construct: LTD4(h); U-937 cells; LTD4; Frey et al. (1993); endogenous in cells; host or cells: U-937 cells
# ORL1(h) (NOP) = target: T16, ORL1(h) (NOP) (Homo sapiens, UniProt P41146); assay: ORL1(h) (NOP) binding assay; conditions: 1.0E−05 M; read-out: % Inhibition of Control Specific Binding
# T16 construct: expressed in transfected cells; host or cells: HEK-293 cells
# CRF1 = target: T17, CRF1 (Rattus norvegicus, UniProt P35353); assay: CRF1 binding assay; conditions: read-out: % Inhibition of Control Specific Binding
# T17 construct: from tissue; host or cells: rat pituitary gland
# NK3(h) = target: T18, NK3(h) (Homo sapiens, UniProt P29371); assay: NK3(h) binding assay; conditions: read-out: % Inhibition of Control Specific Binding
# T18 construct: expressed in transfected cells; host or cells: CHO cells
# α1 (non-selective) = α1 (non-selective) binding assay; parameters: species or system rat; conditions: 1.0E−05 M
# Phosphodiesterase 1 = Phosphodiesterase 1 enzyme assay; type: biochemical, bovine; conditions: 1.0E−05 M
# GABA (non-selective) = type: binding, rat; conditions: 1.0E−05 M
# GABA transporter = GABA transporter (Rattus norvegicus, UniProt P23978); assay: GABA transporter binding assay; conditions: 1.0E−05 M; read-out: % Inhibition of Control Specific Binding
# K^+V channel = K^+V channel binding assay; parameters: species or system rat; conditions: 1.0E−05 M
# B1(h) = target: T19, B1(h) (Homo sapiens, UniProt P46663); assay: B1(h) binding assay; conditions: 1.0E−05 M; read-out: % Inhibition of Control Specific Binding
# T19 construct: expressed in transfected cells; host or cells: CHO cells
# Cl-channel = Cl-channel binding assay; parameters: species or system rat; conditions: 1.0E−05 M
# Y (non-selective) = Y (non-selective) binding assay; parameters: species or system rat; conditions: 1.0E−05 M
# HERG channel, sequence (Q12809 whole entry): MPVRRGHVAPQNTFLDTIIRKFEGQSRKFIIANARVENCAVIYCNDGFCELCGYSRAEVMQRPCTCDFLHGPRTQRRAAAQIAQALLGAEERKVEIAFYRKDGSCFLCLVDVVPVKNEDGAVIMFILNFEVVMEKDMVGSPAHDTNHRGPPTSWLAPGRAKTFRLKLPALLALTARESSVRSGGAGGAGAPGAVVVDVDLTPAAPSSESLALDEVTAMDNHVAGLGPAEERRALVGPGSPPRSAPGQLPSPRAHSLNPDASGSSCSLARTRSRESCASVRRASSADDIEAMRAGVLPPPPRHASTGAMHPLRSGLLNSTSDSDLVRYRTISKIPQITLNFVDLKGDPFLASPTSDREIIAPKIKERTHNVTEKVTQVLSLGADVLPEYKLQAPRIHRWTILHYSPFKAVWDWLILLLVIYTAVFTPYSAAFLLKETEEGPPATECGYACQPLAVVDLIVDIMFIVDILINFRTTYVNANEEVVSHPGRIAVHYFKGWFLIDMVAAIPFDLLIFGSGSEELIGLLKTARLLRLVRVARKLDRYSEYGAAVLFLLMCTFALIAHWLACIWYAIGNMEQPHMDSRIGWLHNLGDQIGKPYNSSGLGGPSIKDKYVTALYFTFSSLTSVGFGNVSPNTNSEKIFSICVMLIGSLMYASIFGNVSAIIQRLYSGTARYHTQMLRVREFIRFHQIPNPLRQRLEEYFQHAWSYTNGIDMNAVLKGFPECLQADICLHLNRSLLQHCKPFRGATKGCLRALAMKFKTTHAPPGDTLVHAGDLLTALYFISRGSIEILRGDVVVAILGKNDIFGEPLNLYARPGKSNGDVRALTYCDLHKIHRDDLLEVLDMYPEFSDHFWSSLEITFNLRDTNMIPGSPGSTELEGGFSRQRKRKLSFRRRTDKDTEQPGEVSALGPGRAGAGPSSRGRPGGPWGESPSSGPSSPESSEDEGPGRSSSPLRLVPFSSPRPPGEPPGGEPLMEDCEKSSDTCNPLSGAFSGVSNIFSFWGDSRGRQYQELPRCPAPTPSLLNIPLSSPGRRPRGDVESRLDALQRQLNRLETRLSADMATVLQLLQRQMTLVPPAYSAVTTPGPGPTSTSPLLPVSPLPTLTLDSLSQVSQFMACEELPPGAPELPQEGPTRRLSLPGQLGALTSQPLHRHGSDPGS
# T9 sequence (Q01959 whole entry): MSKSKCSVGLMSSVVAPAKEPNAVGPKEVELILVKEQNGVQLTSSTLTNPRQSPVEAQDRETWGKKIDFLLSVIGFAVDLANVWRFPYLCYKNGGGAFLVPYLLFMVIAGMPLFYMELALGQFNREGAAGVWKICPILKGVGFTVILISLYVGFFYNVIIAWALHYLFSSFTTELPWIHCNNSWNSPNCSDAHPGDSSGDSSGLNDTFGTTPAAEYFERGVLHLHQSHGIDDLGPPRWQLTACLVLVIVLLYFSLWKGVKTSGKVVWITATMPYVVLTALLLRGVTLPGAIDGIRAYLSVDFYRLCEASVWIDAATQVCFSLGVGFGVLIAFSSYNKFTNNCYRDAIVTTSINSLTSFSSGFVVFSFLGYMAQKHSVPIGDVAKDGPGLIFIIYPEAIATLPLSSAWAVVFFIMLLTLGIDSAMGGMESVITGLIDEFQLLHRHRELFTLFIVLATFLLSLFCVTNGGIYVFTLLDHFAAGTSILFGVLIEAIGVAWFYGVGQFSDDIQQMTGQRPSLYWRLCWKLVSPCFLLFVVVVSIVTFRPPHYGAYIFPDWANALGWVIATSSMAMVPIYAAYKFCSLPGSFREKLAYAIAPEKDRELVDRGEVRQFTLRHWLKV
# hERG, sequence (Q12809 whole entry): as the sequence (Q12809 whole entry) above
# T11 sequence (P27338 whole entry): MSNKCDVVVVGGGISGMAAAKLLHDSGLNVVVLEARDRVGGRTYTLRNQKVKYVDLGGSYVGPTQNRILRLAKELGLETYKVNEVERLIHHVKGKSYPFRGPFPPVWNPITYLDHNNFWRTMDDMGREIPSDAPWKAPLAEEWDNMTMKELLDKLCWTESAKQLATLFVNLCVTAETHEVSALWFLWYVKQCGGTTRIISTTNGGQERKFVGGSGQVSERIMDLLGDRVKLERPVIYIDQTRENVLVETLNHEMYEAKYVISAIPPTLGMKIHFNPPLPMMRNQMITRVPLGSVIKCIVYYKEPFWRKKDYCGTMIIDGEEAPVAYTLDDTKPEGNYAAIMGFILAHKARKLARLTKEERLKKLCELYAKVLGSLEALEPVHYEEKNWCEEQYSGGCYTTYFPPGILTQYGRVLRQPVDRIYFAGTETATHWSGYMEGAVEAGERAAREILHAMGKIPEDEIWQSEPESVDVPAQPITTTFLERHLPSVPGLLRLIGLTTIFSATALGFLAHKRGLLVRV
# T2 sequence (P34972 whole entry): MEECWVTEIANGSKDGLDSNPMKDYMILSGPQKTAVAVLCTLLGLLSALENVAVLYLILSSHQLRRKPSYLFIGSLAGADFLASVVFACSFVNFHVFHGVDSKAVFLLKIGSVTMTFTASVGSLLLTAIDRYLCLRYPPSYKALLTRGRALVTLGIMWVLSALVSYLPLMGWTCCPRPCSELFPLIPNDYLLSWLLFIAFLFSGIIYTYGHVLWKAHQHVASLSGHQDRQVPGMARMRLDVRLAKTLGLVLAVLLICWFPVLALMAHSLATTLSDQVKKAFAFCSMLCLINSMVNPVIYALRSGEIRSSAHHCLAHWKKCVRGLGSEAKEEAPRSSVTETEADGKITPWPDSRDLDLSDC
# T1 sequence (P35462 whole entry): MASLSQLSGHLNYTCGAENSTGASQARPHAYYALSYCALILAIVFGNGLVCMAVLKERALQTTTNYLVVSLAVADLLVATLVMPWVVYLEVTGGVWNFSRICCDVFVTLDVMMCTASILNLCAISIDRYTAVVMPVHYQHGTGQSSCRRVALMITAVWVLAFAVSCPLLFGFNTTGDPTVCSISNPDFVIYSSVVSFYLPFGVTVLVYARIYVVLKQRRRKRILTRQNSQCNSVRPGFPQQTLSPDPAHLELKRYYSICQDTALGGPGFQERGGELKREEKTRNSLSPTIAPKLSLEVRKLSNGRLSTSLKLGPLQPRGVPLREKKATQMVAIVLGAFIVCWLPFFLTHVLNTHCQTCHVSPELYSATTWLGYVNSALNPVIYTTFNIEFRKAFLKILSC
# T5 sequence (P0DMS8 whole entry): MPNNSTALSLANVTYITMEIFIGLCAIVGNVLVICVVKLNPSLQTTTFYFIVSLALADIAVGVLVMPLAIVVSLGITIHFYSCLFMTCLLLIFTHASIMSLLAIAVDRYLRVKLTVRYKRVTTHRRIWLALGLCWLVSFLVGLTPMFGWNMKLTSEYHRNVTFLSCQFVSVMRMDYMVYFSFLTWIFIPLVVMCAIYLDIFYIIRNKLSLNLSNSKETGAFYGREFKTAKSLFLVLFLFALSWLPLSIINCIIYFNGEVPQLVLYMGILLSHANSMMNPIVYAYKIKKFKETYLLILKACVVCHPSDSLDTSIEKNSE
# T17 sequence (P35353 24-415): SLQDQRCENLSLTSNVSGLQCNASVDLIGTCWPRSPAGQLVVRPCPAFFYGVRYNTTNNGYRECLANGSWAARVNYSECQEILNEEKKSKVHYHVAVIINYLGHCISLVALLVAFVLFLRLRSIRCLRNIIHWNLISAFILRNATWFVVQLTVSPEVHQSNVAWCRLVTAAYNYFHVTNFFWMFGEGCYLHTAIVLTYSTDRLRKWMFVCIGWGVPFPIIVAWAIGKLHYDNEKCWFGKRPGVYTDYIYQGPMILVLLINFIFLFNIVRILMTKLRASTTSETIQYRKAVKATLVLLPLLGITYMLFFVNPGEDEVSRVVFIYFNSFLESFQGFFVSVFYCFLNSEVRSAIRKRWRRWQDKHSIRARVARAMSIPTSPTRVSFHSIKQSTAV
smiles,measurement,setting,value
"N#Cc1ccc2c(ccn2CCCCCB(O)O)c1 [Example 20, 5-(5-cyano-1H-indol-1-yl)pentylboronic acid]",inhibition at 10 µM,D3(h),4%
same,inhibition at 10 µM,CB2(h),-12%
same,% Stimulation Relative to Control,Guanylyl cyclase (basal),0%
same,inhibition at 10 µM,V2(h),5%
same,inhibition at 10 µM,A3(h),-12%
same,inhibition at 1 µM,hERG,31.1%
same,Potency Ranking,"HERG channel; HERG-channel blocker ranking, from 1 μM test (Table 17)","Moderate (Moderate, 1 μM<IC50<10 μM)"
same,HERG-channel blocker potency class,HERG channel; general potency ranking system (Roche et al.),moderate
same,inhibition at 10 µM,B2(h),18%
same,% Inhibition of Control Specific Binding,I2 (central),1%
same,inhibition at 10 µM,NK1(h),12%
same,% Inhibition of Control Values,Protein kinase C,0%
same,inhibition at 10 µM,D1(h),0%
same,inhibition at 10 µM,[1],-1%
same,inhibition at 10 µM,DA transporter(h),47%
same,% Inhibition of Control Specific Binding,H3,0%
same,% Inhibition of Control Values,GABA transaminase,−2%
same,% Inhibition of Control Values,MAO-B(h),−8%
same,% Inhibition of Control Specific Binding,5-HT (non-selective),−1%
same,% Inhibition of Control Specific Binding,α2 (non-selective),7%
same,% Inhibition of Control Specific Binding,A2A(h),16%
same,inhibition at 10 µM,Glucocorticoid(h) (GR),-7%
same,% Inhibition of Control Values,Tyrosine hydroxylase,4%
same,% Inhibition of Control Specific Binding,I1 (peripheral),−6%
same,% Inhibition of Control Specific Binding,σ (non-selective),5%
same,inhibition at 10 µM,LTD4(h),12%
same,inhibition at 10 µM,ORL1(h) (NOP),0%
same,inhibition at 10 µM,CRF1,-23%
same,inhibition at 10 µM,NK3(h),3%
same,% Inhibition of Control Specific Binding,α1 (non-selective),21%
same,% Inhibition of Control Values,Phosphodiesterase 1,7%
same,% Inhibition of Control Specific Binding,GABA (non-selective),−15%
same,inhibition at 10 µM,GABA transporter,-13%
same,% Inhibition of Control Specific Binding,K^+V channel,−5%
same,inhibition at 10 µM,B1(h),-5%
same,% Inhibition of Control Specific Binding,Cl-channel,26%
same,% Inhibition of Control Specific Binding,Y (non-selective),14%
